Literature values in patent publication US11602509B2, “Salt of cysteamine for the preparation of highly respirable particles” (RECORDATI INDUSTRIA CHIMICA E FARMACEUTICA SPA, priority 2018, dated 2023).

NCCS [cysteamine free base, cysteamine]
pKa: 9.42
